The target in this experiment is T1, estrogen receptor α ligand binding domain (ER-LBD) (Homo sapiens, UniProt P03372).
T1 construct: gene ESR1
T1 sequence (P03372 311-547 limits assumed): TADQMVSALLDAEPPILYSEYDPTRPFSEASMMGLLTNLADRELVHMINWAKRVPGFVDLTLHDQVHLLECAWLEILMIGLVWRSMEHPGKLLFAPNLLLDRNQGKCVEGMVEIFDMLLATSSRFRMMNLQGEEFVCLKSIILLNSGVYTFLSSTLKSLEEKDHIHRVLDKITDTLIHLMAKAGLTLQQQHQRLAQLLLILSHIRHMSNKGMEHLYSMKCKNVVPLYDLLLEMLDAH
The experiment in a line: competitive fluorescence polarization, displacement of coumestrol from purified ER-LBD.

Regarding `CC[C@H](c1ccc(O)cc1)[C@@H](CC)c1ccc(O)cc1` [hexestrol], the IC50 is 9.27 nM.
`C/C=C(/C(=C/C)c1ccc(O)cc1)c1ccc(O)cc1` [dienestrol]: the IC50 is 12.9 nM.

The values are drawn from article PMC6387142, “Multi-Residue Method for the Analysis of Stilbene Estrogens in Milk” (International Journal of Molecular Sciences, 2019).
